A value given as a limit tells only on which side of the number the result lay.

Data set [1] can be described thus: Elacridar plasma and brain exposure, constant infusion in rats. The conditions noted are these: rat; for concentration at 4 h: Sprague Dawley, intravenous. The data set is classed as in vivo, Sprague Dawley rats.
Data set [2] relates to MDCK-BCRP cells. The conditions noted are these: range of substrates, well documented (ref not given); cited from earlier work.
Data set [3] in a line: Rat plasma protein binding. Type of data set: in vitro ADME.
Data set [4] in a line: Tolerability in rats. The data set is classed as in vivo.
Data set [5] concerns Caco-2 cells. The following applies: range of substrates, well documented (ref not given); cited from earlier work.
Data set [6] relates to P-gp and Bcrp (rat, blood-brain barrier). The experiment in a line: In vivo efflux ratio. The following applies: Sprague Dawley, intravenous, with elacridar 8.9 mg/hr/kg, 4.5-hour constant infusion. More on the design: species or system Sprague Dawley rats.
Data set [7] deals with BCRP. The conditions noted are these: BCRP knockout; cited from earlier work.
The target of data set [8] is T1, Bcrp in the gut and biliary compartments (Rattus norvegicus, UniProt Q80W57).
T1 sequence (Q80W57 1-657): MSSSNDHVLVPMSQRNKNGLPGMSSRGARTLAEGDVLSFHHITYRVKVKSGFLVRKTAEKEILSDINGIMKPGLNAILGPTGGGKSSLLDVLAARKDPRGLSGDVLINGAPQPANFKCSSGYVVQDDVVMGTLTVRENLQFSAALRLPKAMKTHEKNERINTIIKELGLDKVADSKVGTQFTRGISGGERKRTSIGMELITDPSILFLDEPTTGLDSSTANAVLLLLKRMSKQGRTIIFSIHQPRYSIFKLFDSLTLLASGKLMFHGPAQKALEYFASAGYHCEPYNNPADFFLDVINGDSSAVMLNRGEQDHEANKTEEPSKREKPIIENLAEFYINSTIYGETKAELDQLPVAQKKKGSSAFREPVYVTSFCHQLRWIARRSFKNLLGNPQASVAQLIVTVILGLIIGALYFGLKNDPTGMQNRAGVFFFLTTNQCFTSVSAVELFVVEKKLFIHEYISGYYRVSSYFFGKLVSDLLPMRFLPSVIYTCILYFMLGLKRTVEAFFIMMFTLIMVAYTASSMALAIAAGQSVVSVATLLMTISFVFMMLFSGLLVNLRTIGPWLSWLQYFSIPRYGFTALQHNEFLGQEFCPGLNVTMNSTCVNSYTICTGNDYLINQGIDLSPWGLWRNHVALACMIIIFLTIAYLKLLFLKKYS
The experiment in a line: Oral PK of BCRP substrates with constant infusion of elacridar. The data set is classed as in vivo. The conditions noted are these: oral substrate with constant infusion of elacridar.

Data set [9] can be described thus: Valspodar plasma and brain exposure, constant infusion or IV bolus in rats. Type of data set: in vivo, Sprague Dawley rats. The conditions noted are these: rat; for concentration at 4 h: Sprague Dawley, plasma, intravenous.
Data set [10] deals with P-gp. The following applies: ref 26 (Smith et al, 1998); cited from earlier work.
Data set [11] concerns rat P-gp at the BBB. The experiment in a line: In vivo efflux ratio. More on the design: species or system Sprague Dawley rats. The conditions noted are these: constant infusion, inhibition of P-gp at the BBB.
Setting [12] is: constant infusion, based upon 3x the half-life.

For orientation: IC50 means the midpoint of a concentration-inhibition curve. As to `COc1cc2c(cc1OC)CN(CCc1ccc(NC(=O)c3cccc4c(=O)c5cccc(OC)c5[nH]c34)cc1)CC2` [elacridar, 9,10‐dihydro‐5‐methoxy‐9‐oxo‐N‐[4‐[2‐(1,2,3,4‐tetrahydro‐6,7‐dimethoxy‐2‐isoquinolinyl)ethyl]phenyl]‐4‐acridine‐carboxamide], the concentration at 4 h in [1] (brain, 8.9 mg/hr/kg, total drug in brain, elacridar 8.9 mg/hr/kg constant infusion) was greater than 45000 ng/g; in [1] (plasma, 8.9 mg/hr/kg, Elacridar (total plasma), elacridar 8.9 mg/hr/kg, 4.5-hour constant infusion, mean) it was greater than 2000 ng/mL; in data set [1] (plasma, 8.9 mg/hr/kg, steady state free plasma, elacridar 8.9 mg/hr/kg constant infusion (maximum)), 35 to 70 nM; in [1] (plasma, free plasma exposure, range over doses, 0.009 to 8.9 mg/hr/kg constant infusion, 1.5% rat plasma free fraction) it was 0.025 to 49 ng/mL; in data set [1] (plasma, total plasma exposure (mean), range over doses, 0.009 to 8.9 mg/hr/kg constant infusion over 4.5 hours), 1.6 to 3270 ng/mL. The “time to steady state in plasma” value in data set [1] (setting [12]) is no more than 2.5 h. Also, the IC50 in data set [2] is 300 nM; in data set [5] it was 600 nM. The “free in rat plasma (free fraction)” value in data set [3] (well known (ref 27), confirmed in-house) came out at 1.5%. Further, in data set [4] (any study conditions up to 8-hour duration), the side effects result is given as “no negative side effects were observed”.
What is called efflux ratio is a quotient of directional permeabilities that is used to spot active efflux. Take `COc1ccc(Cl)cc1C(=O)NCCc1ccc(S(=O)(=O)NC(=O)NC2CCCCC2)cc1` [glyburide]: in data set [6], the efflux ratio at 4 h was determined as 5.4. In addition, the “increase in placental tissue concentration” value in data set [7] is listed as 2.5 fold.
`O=C(O)c1cc(/N=N/c2ccc(S(=O)(=O)Nc3ccccn3)cc2)ccc1O` [sulfasalazine]: the “increase in liver concentrations” value in [8] (8 hours post-dose) was determined as 4 fold. Further, the half-life result in [8] (up to 8 hours post-dose) is recorded as “significant increase”.
Turning to `CC[C@@]1(O)C(=O)OCc2c1cc1n(c2=O)Cc2cc3c(CN(C)C)c(O)ccc3nc2-1` [topotecan], the “clearance (calculated t1/2 and liver concentrations)” value in [8] is reported as “not impacted”.
`C/C=C/C[C@@H](C)C(=O)[C@H]1C(=O)N[C@@H](C(C)C)C(=O)N(C)CC(=O)N(C)[C@@H](CC(C)C)C(=O)N[C@@H](C(C)C)C(=O)N(C)[C@@H](CC(C)C)C(=O)N[C@@H](C)C(=O)N[C@H](C)C(=O)N(C)[C@@H](CC(C)C)C(=O)N(C)[C@@H](CC(C)C)C(=O)N(C)[C@@H](C(C)C)C(=O)N1C` [valspodar]: the concentration at 4 h in [9] (8 mg/hr/kg, free plasma exposure, maximum soluble dose 8 mg/hr/kg constant infusion) is 2140 nM; in data set [9] (free plasma exposure (mean), range over doses, 0.09 to 8 mg/hr/kg constant infusion over 4.5 hours, rat plasma binding = 92%) it was 32 to 2590 ng/mL. In addition, the “time to steady state in plasma” value in data set [9] (setting [12]) was no more than 2.5 h. In data set [3] (mean), this compound came in with a rat plasma binding of 92%. The side effects result in [4] (IV bolus doses at 10 mg/kg or higher and repeat doses of 5 mg/kg or higher with less than 2 h between doses) is “lethargy and increased urination”; in [4] (constant infusion 0.9 mg/hr/kg and 2.7 mg/hr/kg up to 8 hours), “No side effects were observed”; in data set [4] (constant infusion, highest dose 8 mg/hr/kg) it was “some instances were observed”. In data set [10], the “decrease in in vitro efficacy from serum binding” value is recorded as 23 fold. In addition, in data set [11], the “minimal (lowest) efficacious dose” value stood at 0.9 mg/h/kg.

Source of the values: publication PMC7931226 (Pharmacology Research & Perspectives, 2021).
